Active and inactive are the calls of the source. The rule behind the calls is not given here.
Assays:
[1] = tested on: MIA PaCa-2; assay: Downregulation of histone H4B mRNA expression in human MIAPaCa2 cells at 50 uM after 72 hrs by quantitative RT-PCR analysis; assay type: functional, cell-based
[2] = Growth inhibition of human HEK293 cells after 6 days by MTS assay; assay type: cell-based
[3] = tested on: HEK293; assay: Downregulation of histone H4D mRNA expression in human HEK293 cells at 250 uM after 72 hrs by quantitative RT-PCR analysis; assay type: ADME, cell-based; details: hek293, 72 h
[4] = tested on: HEK293; assay: Downregulation of histone H4H mRNA expression in human HEK293 cells at 250 uM after 72 hrs by quantitative RT-PCR analysis; assay type: ADME, cell-based; details: hek293, 72 h
[5] = tested on: MIA PaCa-2; assay: Downregulation of histone HJK mRNA expression in human MIAPaCa2 cells at 50 uM after 72 hrs by quantitative RT-PCR analysis; assay type: functional, cell-based
[6] = tested on: HEK293; assay: Downregulation of histone H4B mRNA expression in human HEK293 cells at 250 uM after 72 hrs by quantitative RT-PCR analysis; assay type: ADME, cell-based; details: hek293, 72 h
[7] = tested on: MIA PaCa-2; assay: Downregulation of histone H4D mRNA expression in human MIAPaCa2 cells at 50 uM after 72 hrs by quantitative RT-PCR analysis; assay type: functional, cell-based
[8] = tested on: HEK293; assay: Downregulation of histone H4AB mRNA expression in human HEK293 cells at 250 uM after 72 hrs by quantitative RT-PCR analysis; assay type: ADME, cell-based; details: hek293, 72 h
[9] = tested on: HEK293; assay: Downregulation of histone H4E mRNA expression in human HEK293 cells at 250 uM after 72 hrs by quantitative RT-PCR analysis; assay type: ADME, cell-based; details: hek293, 72 h
[10] = tested on: HEK293; assay: Downregulation of histone HJK mRNA expression in human HEK293 cells at 250 uM after 72 hrs by quantitative RT-PCR analysis; assay type: ADME, cell-based; details: hek293, 72 h
[11] = tested on: MIA PaCa-2; assay: Downregulation of histone H4E mRNA expression in human MIAPaCa2 cells at 50 uM after 72 hrs by quantitative RT-PCR analysis; assay type: functional, cell-based
[12] = Drug uptake in human HEK293 cell nucleus using BODIPY labeled compound at 500 uM after 16 hrs by […] microscopic analysis; assay type: ADME, cell-based; details: hek293, 16 h
[13] = tested on: MIA PaCa-2; assay: Downregulation of histone H4AB mRNA expression in human MIAPaCa2 cells at 50 uM after 72 hrs by quantitative RT-PCR analysis; assay type: functional, cell-based
[14] = tested on: HEK293; assay: Downregulation of histone H4L mRNA expression in human HEK293 cells at 250 uM after 72 hrs by quantitative RT-PCR analysis; assay type: ADME, cell-based; details: hek293, 72 h
[15] = tested on: MIA PaCa-2; assay: Downregulation of histone H4H mRNA expression in human MIAPaCa2 cells at 50 uM after 72 hrs by quantitative RT-PCR analysis; assay type: functional, cell-based
[16] = tested on: HEK293; assay: Downregulation of histone H4C mRNA expression in human HEK293 cells at 250 uM after 72 hrs by quantitative RT-PCR analysis; assay type: ADME, cell-based; details: hek293, 72 h
[17] = tested on: MIA PaCa-2; assay: Downregulation of histone H4A mRNA expression in human MIAPaCa2 cells at 50 uM after 72 hrs by quantitative RT-PCR analysis; assay type: functional, cell-based
[18] = tested on: MIA PaCa-2; assay: Growth inhibition of human MIAPaCa2 cells after 6 days by MTS assay; assay type: functional; details: MIA PaCa-2, 144 h
[19] = tested on: HEK293; assay: Downregulation of histone H4A mRNA expression in human HEK293 cells at 250 uM after 72 hrs by quantitative RT-PCR analysis; assay type: ADME, cell-based; details: hek293, 72 h
[20] = tested on: MIA PaCa-2; assay: Downregulation of histone H4C mRNA expression in human MIAPaCa2 cells at 50 uM after 72 hrs by quantitative RT-PCR analysis; assay type: functional, cell-based
[21] = tested on: MIA PaCa-2; assay: Downregulation of histone H4L mRNA expression in human MIAPaCa2 cells at 50 uM after 72 hrs by quantitative RT-PCR analysis; assay type: functional, cell-based
[22] = tested on: HEK293; assay: Downregulation of histone 4H4 mRNA expression in human HEK293 cells at 250 uM after 72 hrs by quantitative RT-PCR analysis; assay type: ADME, cell-based; details: hek293, 72 h
[23] = tested on: HEK293; assay: Selectivity ratio of GI50 for human HEK293 cells to GI50 for human MIAPaCa2 cells
[24] = tested on: MIA PaCa-2; assay: Downregulation of histone 4H4 mRNA expression in human MIAPaCa2 cells at 50 uM after 72 hrs by quantitative RT-PCR analysis; assay type: functional, cell-based

## CN(C)CCCNC(=O)CCNC(=O)c1cc(NC(=O)c2cc(NC(=O)c3cc(NC(=O)c4cc(NC(=O)[C@@H](CCNC(=O)CCCc5ccc(N(CCCl)CCCl)cc5)NC(=O)c5nc(NC(=O)CCNC(=O)c6nc(NC(=O)c7nccn7C)cn6C)cn5C)cn4C)cn3C)cn2C)cn1C
[1]
  Activity: Active
[2]
  GI50 at 144 h: 400 nM
[3]
  Activity: Non-toxic
[4]
  Activity: Non-toxic
[5]
  Activity: Active
[6]
  Activity: Non-toxic
[7]
  Activity: Active
[8]
  Activity: Non-toxic
[9]
  Activity: Non-toxic
[10]
  Activity: Non-toxic
[11]
  Activity: Active
[12]
  Drug uptake: Active
[13]
  Activity: Active
[14]
  Activity: Non-toxic
[15]
  Activity: Active
[16]
  Activity: Non-toxic
[17]
  Activity: Active
[18]
  GI50: 16 nM
[19]
  Activity: Non-toxic
[20]
  Activity: Active
[21]
  Activity: Active
[22]
  Activity: Non-toxic
[23]
  RatioGI50: 25
[24]
  Activity: Active
